Assay results taken from publication PMC12442099 (ACS Infectious Diseases, 2025).
Values after ≈ are worked out from the molar mass of the structure shown.

What was measured:
[1] = system: E. coli MC4100; experiment: Growth inhibition after 7 hours (EC80/EC50); conditions: Escherichia coli, MC4100, 7 h; for EC50: read-out: EC50 MC4100; for IC80: read-out: EC80 MC4100
[2] = system: S. aureus USA 300; experiment: MIC broth microdilution; assay type: cell-based; conditions: Staphylococcus aureus, USA300; clinical isolate; CAMHB, median of triplicates; read-out: MIC (μg/mL) S. aureus USA 300
Method: (§1) The antibacterial activity of the compounds was determined by measuring their minimum inhibitory concentration (MIC) values using the broth microdilution method according to the Clinical and Laboratory Standards Institute guidelines (CLSI). Briefly, a single colony from blood agar plates was inoculated into cation-adjusted Mueller-Hinton broth (CAMHB) and grown to OD600 = 0.5. Next, 10^6 CFU/mL were added to a 2-fold serial dilution series of test compounds and incubated at 37 °C, 600 rpm overnight (18–20 h for Gram-negative strains, 20–24 h for Gram-positive strains), after which the plates were visually inspected for bacterial growth. MICs are reported as the median of triplicates.

[3] = system: E. coli TOP10F’; experiment: MIC broth microdilution; assay type: cell-based; conditions: Escherichia coli; screening strain; CAMHB, median of triplicates; read-out: MIC (μg/mL) E. coli TOP10F’
Method: as §1

[4] = system: K. pneumoniae 13883; experiment: MIC broth microdilution; assay type: cell-based; conditions: Klebsiella pneumoniae, clinical isolate, CAMHB, median of triplicates, read-out: MIC (μg/mL) K. pneumoniae 13883
Method: as §1

[5] = system: A. baumanni 9955; experiment: MIC broth microdilution; assay type: cell-based; conditions: Acinetobacter baumannii, clinical isolate, CAMHB, median of triplicates, read-out: MIC (μg/mL) A. baumanni 9955
Method: as §1

[6] = system: E. coli BW25113; experiment: MIC broth microdilution; assay type: cell-based; conditions: Escherichia coli, CAMHB, median of triplicates, read-out: MIC (μg/mL) E. coli BW25113
Method: as §1

[7] = system: E. coli 25922; experiment: MIC broth microdilution; assay type: cell-based; conditions: Escherichia coli, CAMHB, median of triplicates, read-out: MIC (μg/mL) E. coli 25922
Method: as §1

[8] = system: P. aeruginosa 27853; experiment: MIC broth microdilution; assay type: cell-based; conditions: Pseudomonas aeruginosa, clinical isolate, CAMHB, median of triplicates, read-out: MIC (μg/mL) P. aeruginosa 27853
Method: as §1

[9] = system: Rcs cell envelope stress response in Escherichia coli; experiment: Rcs stress reporter assay, HTS format, dose-response curves; assay type: cell-based; conditions: for Emax: read-out: Max. effect (%); for EC50: read-out: pEC50 (converted)
Method: We adapted the reporter assay based on the Rcs stress system for HTS in a screening program at the ELF as the first bacterial phenotypic screen used in this setting. , The assay was performed in a 1536-well format using 25 μM PMBN as a reference (set at 100% effect).
The ELF screened their extensive and diverse library consisting of >500,000 small molecules at a concentration of 10 μM. The assay window (S/B) and Z’ values remained stable (2.0–15.2 and 0.50–0.90, respectively) throughout the screening campaign. The detailed standard screening procedure of the ELF is outlined elsewhere. An overview of the selection process of the screening campaign performed here is outlined in Figure . Initially, 340 compounds with an effect ≥20% of the reference compound PMBN were considered biologically active. Usually, up to 1% of the input library is selected for confirmatory, dose–response, orthogonal and deselection assays. Because the number of biological actives identified in this assay was well below the 1% limit, no orthogonal assays were performed. Instead, all compounds were reordered and tested as dilution series in the Rcs assay to generate dose–response curves (DRCs). Each compound’s pEC50 (−log of EC50, defined as the concentration (mol/L) at which 50% effect is achieved) was determined, and compounds with a pEC50 ≥ 4.7 were selected for further analysis. Next, the compounds were subjected to a mammalian cell-based cytotoxicity assay to exclude toxic compounds that may have a generic effect on membrane integrity. Compounds that reduced mammalian cell viability by 50% were considered cytotoxic. The qualified hit list (QHL) was then generated following triaging based on LC-MS analysis and pEC50 values.
Overnight cultures (ONCs) were prepared by inoculating 5 mL medium from glycerol stocks and incubating the culture for 16–18 h. ONCs were then diluted to an OD600 of 0.05 and grown until an OD600 of 0.3–0.4 was reached.
Assay robustness was confirmed by testing its sensitivity to assay-interfering agents, including colored, aggregating and fluorescent compounds. […] For HTS, bacteria were diluted 50x in prewarmed medium. Fifteen nL of assay compounds (10 μM), DMSO (0.25%), or the reference compound polymyxin B nonapeptide (PMBN) at 25 μM were added to 1536 well plates. Next, 6 μL culture aliquots were added to assay plates containing compounds. Plates were briefly centrifuged for 1 min at 150 x g. Plates were incubated at 37 °C with high humidity and fluorescence (Ex./Em. λ: 485/528 nm) was measured at T = 0 and T = 150 min using a ClarioStar plate reader (BMG Labtech). For data analysis, T = 0 values were subtracted from T = 150 values to calculate Z-score and % effect compared to the reference compound.
Dose–response curves of the 340 initial active compounds were determined following the preparation of serial dilutions (20 nM–20 μM; 7 points, √10). The % effect compared to the reference compound PMBN was calculated and plotted for each compound dilution. The resulting plots were used to calculate pEC50 (-log(EC50), with EC50 being determined as the concentration at which a 50% effect is observed).

[10] = system: E. coli TOP10F'; experiment: Growth inhibition after 7 hours (EC80/EC50); conditions: Escherichia coli, 7 h; for EC50: read-out: EC50 TOP10F'; for IC80: read-out: EC80 TOP10F'
[11] = system: Rcs stress response in E. coli TOP10F’; experiment: Rcs stress kinetics reporter assay; assay type: cell-based
Method: Stress was measured in real-time during 10 h following compound treatment by normalizing the fluorescence intensity for growth as indicated by the optical density at 600 nm (OD600) of the culture.
3 Bacterial stress responses of different compound classes as shown in panel (A). (B) Rcs, (C) σE, (D) Cpx, and (E) heat shock. Graphs show fold change in fluorescence normalized for OD600 at EC80 compound concentrations over the course of 10h. Fold change values were determined by comparing OD600‑normalized fluorescence of compound-treated samples to DMSO treated samples. PMBN is used as a CE stress-inducing control at 25 μg/mL, which is the concentration used as a control during the screening campaign. Chloramphenicol at 1 μg/mL is used as a non-stress-inducing antibiotic control. Error bars indicate standard deviation of the average of triplicate samples from at least two independent experiments. (F) Overview of the different stress responses based on the compound class.
(§2) For lower throughput analysis under laboratory conditions, cultures grown to OD600 of 0.3–0.4 were diluted to a final concnetration of 0.05 OD600 units/mL in black, clear-bottom 96-well plates (Greiner Bio-One B.V.). Plates were incubated in a Biotek HTX or H1 plate reader (Agilent Technologies) at 37 °C with continuous shaking. Kinetic studies were performed by measuring OD600 and fluorescence (Ex./Em. Λ: 485/528 nm) every 20 min for 10h. For end point measurements, fluorescence was measured at T = 0 and once more at T = 150 min.

[12] = system: Rcs stress response in E. coli MC4100 (WT, FQR, GEPR); experiment: Rcs stress reporter assay in MC4100 wildtype and resistant mutants; assay type: cell-based; conditions: EC80 concentrations
Source text: Serial passaging of E. coli MC4100 in the presence of increasing concentrations of lomefloxacin or gepotidacin yielded resistant variants of E. coli MC4100. We used MC4100 to raise resistance, because unlike the screening strain TOP10F’, this strain has a functional SOS stress response, which has been implicated in developing resistance against quinolones. Compounds also elicited a robust Rcs stress response in E. coli MC4100, allowing for this strain to be used for stress assays.
4 Rcs stress induced by EC80 concentrations of (A) lomefloxacin, (B) gepotidacin, (C) A2, and (D) B1 in wildtype (WT), fluoroquinolone resistant (FQR) or gepotidacin resistant (GEPR) bacteria. Graphs show the fold change in fluorescence adjusted for bacterial growth as determined by OD600. Error bars indicate the standard deviation of triplicate samples. Data are representative of three independent experiments with similar results. […]
as §2

[13] = system: SOS stress response in E. coli MC4100; experiment: SOS stress reporter assay (PlexA-mNG); assay type: cell-based; conditions: EC80 compound concentrations (Fig. 5A); Fig. S4
Source text: To examine the potential link between DNA gyrase inhibition, SOS stress, and CE stress, we designed a fluorescent SOS reporter plasmid, similar to the reporter plasmids used to study CE stresses.
5 (A) SOS stress induced by different compounds at EC80 concentrations in E. coli MC4100. (B) Rcs stress of different compounds at EC80 concentrations in E. coli MC4100. (C) Rcs stress of the nonquinolone gyrase inhibitor LEI-800 in TOP10F’. (D) Rcs stress induced by mitomycin C in E. coli TOP10F’ and E. coli MC4100. Graphs show fold change in fluorescence adjusted for bacterial growth (OD600). Error bars indicate standard deviation of triplicates. Data are representative of two independent experiments with similar results.

| SMILES | EC50 [1] [µg/mL] | IC80 [1] [µg/mL] | MIC [2] [µg/mL] | MIC [3] [µg/mL] | MIC [4] [µg/mL] | MIC [5] [µg/mL] | MIC [6] [µg/mL] | MIC [7] [µg/mL] | MIC [8] [µg/mL] | Emax [9] [%] | EC50 [9] [nM] | EC50 [10] [µg/mL] | IC80 [10] [µg/mL] | induction of stress response systems (Rcs, σE, Cpx, heat shock) ([11]; chloramphenicol 1 μg/mL, negative control) | Rcs stress induction in SOS-deficient TOP10F’ ([11]; fold change fluorescence/OD600) | Rcs stress induction in MC4100 wildtype [12] | SOS stress induction in MC4100 [13] |
| --- | --- | --- | --- | --- | --- | --- | --- | --- | --- | --- | --- | --- | --- | --- | --- | --- | --- |
| Cc1cc(-c2c(F)cc3c(=O)c(C(=O)O)cn(CCF)c3c2F)cc(C)n1 [A1] | 0.5 (≈ 1.33 µM) | 2 (≈ 5.31 µM) | 1 (≈ 2.66 µM) | < 0.03 | 1 (≈ 2.66 µM) | 1 (≈ 2.66 µM) | 0.25 (≈ 0.664 µM) | 0.5 (≈ 1.33 µM) | 16 (≈ 42.5 µM) | 26.1 | 955 | 0.016 (≈ 0.0425 µM) | 0.063 (≈ 0.167 µM) |  |  |  |  |
| CCc1cc(-c2c(F)cc3c(=O)c(C(=O)O)cn4c3c2OC[C@@H]4C)cc(C)n1 [A3] | 0.25 (≈ 0.654 µM) | 1 (≈ 2.62 µM) | 0.5 (≈ 1.31 µM) | < 0.03 | 1 (≈ 2.62 µM) | 0.5 (≈ 1.31 µM) | 0.125 (≈ 0.327 µM) | 0.125 (≈ 0.327 µM) | 8 (≈ 20.9 µM) | 18.6 | 191 | 0.0078 (≈ 0.0204 µM) | 0.031 (≈ 0.0811 µM) |  |  |  |  |
| CNn1cc(C(=O)O)c(=O)c2cc(F)c(N3CCN(C(C)C)CC3)cc21 [A4] | 0.25 (≈ 0.69 µM) | 1 (≈ 2.76 µM) | 64 (≈ 177 µM) | 0.125 (≈ 0.345 µM) | 0.5 (≈ 1.38 µM) | 2 (≈ 5.52 µM) | 0.25 (≈ 0.69 µM) | 0.25 (≈ 0.69 µM) | 16 (≈ 44.1 µM) | 20.8 | 214 | 2 (≈ 5.52 µM) | 4 (≈ 11 µM) |  |  |  |  |
| COC1CN(CCn2c(=O)ccc3ncc(F)cc32)CCC1NCc1cc(F)c2c(c1)NC(=O)CO2 (stereo not drawn) [B2] | 2 (≈ 4 µM) | 16 (≈ 32 µM) | 0.25 (≈ 0.5 µM) | 0.06 (≈ 0.12 µM) | 4 (≈ 8.01 µM) | 1 (≈ 2 µM) | 1 (≈ 2 µM) | 2 (≈ 4 µM) | 8 (≈ 16 µM) | 53.2 | 631 | < 0.063 | 2 (≈ 4 µM) |  |  |  |  |
| Cc1ncc(CNC2CCN(CCn3c(=O)ccc4ncc(OCc5ccnn5C)cc43)CC2)cc1Cl [B3] | 2 (≈ 3.83 µM) | > 16 | 0.125 (≈ 0.239 µM) | 2 (≈ 3.83 µM) | 64 (≈ 123 µM) | 8 (≈ 15.3 µM) | 16 (≈ 30.6 µM) | 16 (≈ 30.6 µM) | > 64 | 37.9 | 5620 | 0.016 (≈ 0.0306 µM) | 1 (≈ 1.92 µM) |  |  |  |  |
| O=C(N[C@H](CO)[C@H](O)c1ccc([N+](=O)[O-])cc1)C(Cl)Cl [Chloramphenicol] |  |  |  |  |  |  |  |  |  |  |  |  |  | did not induce any of the stress response systems tested |  |  |  |
| O=S(=O)(NC[C@@H]1CC[C@H](c2ccc(-c3cccnc3)cc2)N1)c1cccc2cnccc12 [LEI-800, reference compound] | 2 (≈ 4.5 µM) | 8 (≈ 18 µM) |  |  |  |  |  |  |  |  |  | 1 (≈ 2.25 µM) | 8 (≈ 18 µM) |  | induced high levels of Rcs stress similar to CluB compounds | Neither compound induced Rcs stress | did not induce strong fluorescence |
| CN(C)c1ccc(-c2nc(Cl)nc3cccnc23)cc1 [S2] |  |  |  |  |  |  |  |  |  | 87.9 | 7760 |  |  |  |  |  |  |
